Results: patent publication US20260232767A1, “INTERLEUKIN-23 RECEPTOR ANTAGONIST PEPTIDES FOR USE IN THE TREATMENT OF PSORIASIS” (Janssen Pharmaceutica NV, priority 2023, published 2026)

Tested on: subjects with moderate-to-severe plaque psoriasis
Test: PASI response, Example 2 long-term extension to Week 52
Assay type: in vivo, human
Excerpt: Described below is a multicenter, long-term extension (LTE), double-blind, dose-ranging, parallel group interventional study in participants from Example 1 to evaluate the long-term efficacy and safety of the hydrochloride salt of the compound of Formula (I) for the treatment of moderate-to-severe plaque psoriasis. Patients from Example 1 continued to receive the same dose of the compound of Formula (I) for an additional 36-week treatment period with a 4-week safety follow up period after the last administration of the compound of Formula (I). Patients randomized to placebo in Example 1 received the compound of Formula (I) at a dose of 100 mg QD starting at Week 16 of Example 1 (FIG. 21).
The primary efficacy endpoint is the proportion of participants achieving a PASI 75 response at Week 52, defined as at least a […] reduction from baseline PASI of Example 1. For primary analysis, composite strategy (non-responder imputation) was applied to address intercurrent event #1 (Discontinuation of study intervention due to lack of efficacy or due to an AE of worsening of psoriasis) and […] (initiation of a protocol-prohibited medication or therapy that could improve psoriasis); treatment policy strategy (observed data) was applied to intercurrent event #3 (Discontinuation of study intervention due to other reasons). Participants with missing data after application of ICEs are considered as non-responders.
Since there was no control arm (after week 16), in this primary analysis, only the proportion of participants who achieved a PASI75 response and its […] confidence interval at Week 52 were summarized for each intervention group.

[1] = Week 20, Placebo → 100 mg QD, N=35
[2] = Week 24, Placebo → 100 mg QD, N=35
[3] = Week 28, Placebo → 100 mg QD, N=35
[4] = Week 32, Placebo → 100 mg QD, N=35
[5] = Week 40, Placebo → 100 mg QD, N=35
[6] = Week 52, Placebo → 100 mg QD, N=35

## CC(=O)NCCCC[C@@H]1NC(=O)[C@H](Cc2c[nH]c3c(C)cccc23)NC(=O)[C@H]([C@@H](C)O)NC(=O)[C@H](CC(N)=O)NC(=O)[C@@H](NC(C)=O)C(C)(C)SSC(C)(C)[C@@H](C(=O)N[C@@H](Cc2ccc(OCCN)cc2)C(=O)N[C@@H](Cc2ccc3ccccc3c2)C(=O)NC2(C(=O)N[C@@H](CCC(=O)O)C(=O)N[C@@H](CC(N)=O)C(=O)N[C@@H](Cc3cccnc3)C(=O)N(C)CC(N)=O)CCOCC2)NC1=O [IL-23 receptor antagonist peptide, Ac-[Pen]*-N-T-[W(7-Me)]-[Lys(Ac)]-[Pen]*-Phe[4-(2-aminoethoxy)]-[2-Nal]-[THP]-E-N-[3-Pal]-Sarc-NH2 (*[Pen]-[Pen]* formdisulfidebond)]
Week 20, 100 mg BID, N=42
  PASI ≥90% Improvement, subjects (%): (61.9%)
Week 20, 100 mg QD, N=43
  PASI 100% Improvement, subjects (%): (14.0%)
  PASI ≥75% Improvement, subjects (%): (60.5%)
  PASI ≥90% Improvement, subjects (%): (44.2%)
[1]
  PASI 100% Improvement, subjects (%): (2.9%)
  PASI ≥75% Improvement, subjects (%): (40.0%)
  PASI ≥90% Improvement, subjects (%): (14.3%)
Week 24, 25 mg BID, N=41
  PASI 100% Improvement, subjects (%): (19.5%)
  PASI ≥75% Improvement, subjects (%): (61.0%)
  PASI ≥90% Improvement, subjects (%): (29.3%)
Week 24, 25 mg QD, N=43
  PASI 100% Improvement, subjects (%): (16.3%)
  PASI ≥75% Improvement, subjects (%): (46.5%)
  PASI ≥90% Improvement, subjects (%): (32.6%)
Week 24, 50 mg QD, N=43
  PASI 100% Improvement, subjects (%): (27.9%)
  PASI ≥75% Improvement, subjects (%): (60.5%)
  PASI ≥90% Improvement, subjects (%): (53.5%)
Week 24, 100 mg BID, N=42
  PASI 100% Improvement, subjects (%): (35.7%)
  PASI ≥75% Improvement, subjects (%): (81.0%)
  PASI ≥90% Improvement, subjects (%): (69.0%)
Week 24, 100 mg QD, N=43
  PASI 100% Improvement, subjects (%): (20.9%)
  PASI ≥75% Improvement, subjects (%): (69.8%)
  PASI ≥90% Improvement, subjects (%): (55.8%)
[2]
  PASI 100% Improvement, subjects (%): (8.6%)
  PASI ≥75% Improvement, subjects (%): (60.0%)
  PASI ≥90% Improvement, subjects (%): (22.9%)
Week 28, 25 mg BID, N=41
  PASI 100% Improvement, subjects (%): (17.1%)
  PASI ≥75% Improvement, subjects (%): (61.0%)
  PASI ≥90% Improvement, subjects (%): (36.6%)
Week 28, 25 mg QD, N=43
  PASI 100% Improvement, subjects (%): (18.6%)
  PASI ≥75% Improvement, subjects (%): (39.5%)
  PASI ≥90% Improvement, subjects (%): (27.9%)
Week 28, 50 mg QD, N=43
  PASI 100% Improvement, subjects (%): (14.0%)
  PASI ≥75% Improvement, subjects (%): (69.8%)
  PASI ≥90% Improvement, subjects (%): (48.8%)
Week 28, 100 mg BID, N=42
  PASI 100% Improvement, subjects (%): (38.1%)
  PASI ≥75% Improvement, subjects (%): (78.6%)
  PASI ≥90% Improvement, subjects (%): (61.9%)
Week 28, 100 mg QD, N=43
  PASI 100% Improvement, subjects (%): (25.6%)
  PASI ≥75% Improvement, subjects (%): (65.1%)
  PASI ≥90% Improvement, subjects (%): (51.2%)
[3]
  PASI 100% Improvement, subjects (%): (14.3%)
  PASI ≥75% Improvement, subjects (%): (62.9%)
  PASI ≥90% Improvement, subjects (%): (22.9%)
Week 32, 25 mg BID, N=41
  PASI 100% Improvement, subjects (%): (17.1%)
  PASI ≥75% Improvement, subjects (%): (53.7%)
  PASI ≥90% Improvement, subjects (%): (39.0%)
Week 32, 25 mg QD, N=43
  PASI 100% Improvement, subjects (%): (18.6%)
  PASI ≥75% Improvement, subjects (%): (48.8%)
  PASI ≥90% Improvement, subjects (%): (30.2%)
Week 32, 50 mg QD, N=43
  PASI 100% Improvement, subjects (%): (25.6%)
  PASI ≥75% Improvement, subjects (%): (65.1%)
  PASI ≥90% Improvement, subjects (%): (51.2%)
Week 32, 100 mg BID, N=42
  PASI 100% Improvement, subjects (%): (33.3%)
  PASI ≥75% Improvement, subjects (%): (78.6%)
  PASI ≥90% Improvement, subjects (%): (66.7%)
Week 32, 100 mg QD, N=43
  PASI 100% Improvement, subjects (%): (25.6%)
  PASI ≥75% Improvement, subjects (%): (69.8%)
  PASI ≥90% Improvement, subjects (%): (62.8%)
[4]
  PASI 100% Improvement, subjects (%): (20.0%)
  PASI ≥75% Improvement, subjects (%): (65.7%)
  PASI ≥90% Improvement, subjects (%): (40.0%)
Week 40, 25 mg BID, N=41
  PASI 100% Improvement, subjects (%): (14.6%)
  PASI ≥75% Improvement, subjects (%): (53.7%)
  PASI ≥90% Improvement, subjects (%): (31.7%)
Week 40, 25 mg QD, N=43
  PASI 100% Improvement, subjects (%): (11.6%)
  PASI ≥75% Improvement, subjects (%): (48.8%)
  PASI ≥90% Improvement, subjects (%): (32.6%)
Week 40, 50 mg QD, N=43
  PASI 100% Improvement, subjects (%): (20.9%)
  PASI ≥75% Improvement, subjects (%): (67.4%)
  PASI ≥90% Improvement, subjects (%): (46.5%)
Week 40, 100 mg BID, N=42
  PASI 100% Improvement, subjects (%): (35.7%)
  PASI ≥75% Improvement, subjects (%): (78.6%)
  PASI ≥90% Improvement, subjects (%): (64.3%)
Week 40, 100 mg QD, N=43
  PASI 100% Improvement, subjects (%): (25.6%)
  PASI ≥75% Improvement, subjects (%): (69.8%)
  PASI ≥90% Improvement, subjects (%): (55.8%)
[5]
  PASI 100% Improvement, subjects (%): (28.6%)
  PASI ≥75% Improvement, subjects (%): (60.0%)
  PASI ≥90% Improvement, subjects (%): (45.7%)
Week 52, 25 mg BID, N=41
  PASI 100% Improvement, subjects (%): (17.1%)
  PASI ≥75% Improvement, subjects (%): (58.5%)
  PASI ≥90% Improvement, subjects (%): (36.6%)
Week 52, 25 mg QD, N=43
  PASI 100% Improvement, subjects (%): (14.0%)
  PASI ≥75% Improvement, subjects (%): (48.8%)
  PASI ≥90% Improvement, subjects (%): (27.9%)
Week 52, 50 mg QD, N=43
  PASI 100% Improvement, subjects (%): (20.9%)
  PASI ≥75% Improvement, subjects (%): (69.8%)
  PASI ≥90% Improvement, subjects (%): (41.9%)
Week 52, 100 mg BID, N=42
  PASI 100% Improvement, subjects (%): (40.5%)
  PASI ≥75% Improvement, subjects (%): (76.2%)
Week 52, 100 mg QD, N=43
  PASI 100% Improvement, subjects (%): (25.6%)
  PASI ≥75% Improvement, subjects (%): (65.1%)
  PASI ≥90% Improvement, subjects (%): (51.2%)
[6]
  PASI 100% Improvement, subjects (%): (34.3%)
  PASI ≥75% Improvement, subjects (%): (65.7%)
  PASI ≥90% Improvement, subjects (%): (57.1%)
From Week 16 to Week 52
  PASI and IGA response rates: generally maintained
